Data taken from patent publication US10961238B2, “Modulators of hedgehog (Hh) signaling pathway” (E-THERAPEUTICS PLC, priority 2016, dated 2021).

test system: C3H10T1/2 cells; test: C3H assay: differentiation of C3H10T1/2 cells by mSHH, measurement of alkaline phosphatase; format: cell-based, mouse; settings: C3H10T1/2 cells stimulated with mSHH for 72 hours; alkaline phosphatase activity; read-out: IC50 Ranges

| SMILES | IC50 |
| --- | --- |
| CC[C@@H](C)OC(=O)N1CC(S(=O)(=O)N2CCC(c3coc4cccnc34)CC2)C1 [Compound 371, [(2R)-butan-2-yl]3-(4-furo[3,2-b]pyridin-3-ylpiperidin-1-yl)sulfonylaze-tidine-1-carboxylate] | 0.01 to 0.1 µM |
| CC1(C)COCN1C(=O)N1CC(S(=O)(=O)N2CCC(c3coc4cccnc34)CC2)C1 [Compound 372, (4,4-dimethyl-1,3-oxazolidin-3-yl)-[3-(4-furo[3,2-b]pyridin-3-ylpiperidin-1-yl)sulfonylaze-tidin-1-yl]methanone] | 0.01 to 0.1 µM |

same assay, conditions: Mus musculus, C3H 10T1/2; C3H10T1/2 cells stimulated with mSHH for 72 hours; alkaline phosphatase activity; read-out: IC50 Ranges

| SMILES | IC50 |
| --- | --- |
| O=C(Nc1ccc(Cl)cc1Cl)N1CC(S(=O)(=O)N2CCC(c3coc4cccnc34)CC2)C1 [Compound 359, N-(2,4-dichlorophenyl)-3-(4-furo[3,2-b]pyridin-3-ylpiperidin-1-yl)sulfonylaze-tidine-1-carboxamide] | 0.01 to 0.1 µM |
| O=C(NC1(C(F)(F)F)CC1)[C@H]1C[C@@H](S(=O)(=O)N2CCC(c3coc4cccnc34)CC2)C1 [Compound 361, cis-3-(4-furo[3,2-b]pyridin-3-ylpiperidin-1-yl)sulfonyl-N-[1-(trifluoromethyl)cyclopropyl] cyclobutane-1-carboxamide] | 0.01 to 0.1 µM |
| CC(C)(C)NC(=O)[C@H]1C[C@@H](S(=O)(=O)N2CCC(c3coc4cccnc34)CC2)C1 [Compound 362, cis-N-tert-butyl-3-(4-furo[3,2-b]pyridin-3-ylpiperidin-1-yl) sulfonylcyclobutane-1-carboxamide] | 0.01 to 0.1 µM |
| Cc1c(F)cccc1NC(=O)N1CC(S(=O)(=O)N2CCC(c3c[nH]c4ncccc34)CC2)C1 [Compound 363, N-(3-fluoro-2-methylphenyl)-3-[4-(1H-pyrrolo[2,3-b]pyridin-3-yl)piperidin-1-yl]sulfonylaze-tidine-1-carboxamide] | 0.01 to 0.1 µM |
| Cc1ccccc1NC(=O)N1CC(S(=O)(=O)N2CCC(c3c[nH]c4ncccc34)CC2)C1 [Compound 364, N-(2-methylphenyl)-3-[4-(1H-pyrrolo[2,3-b]pyridin-3-yl)piperidin-1-yl]sulfonylaze-tidine-1-carboxamide] | 0.01 to 0.1 µM |
| Cc1ccc(F)cc1NC(=O)N1CC(S(=O)(=O)N2CCC(c3ccc(C#N)cc3)CC2)C1 [Compound 366, 3-[4-(4-cyanophenyl)piperidin-1-yl]sulfonyl-N-(5-fluoro-2-methylphenyl) azetidine-1-carboxamide] | 0.1 to 1 µM |
| Cc1ccccc1NC(=O)N1CC(S(=O)(=O)N2CCC(c3coc4cccnc34)CC2)C1 [Compound 369, 3-(4-furo[3,2-b]pyridin-3-ylpiperidin-1-yl)sulfonyl-N-(2-methylphenyl) azetidine-1-carboxamide] | 0.1 to 1 µM |
| CC(C)(C)NC(=O)N1CC(S(=O)(=O)N2CCC(c3coc4cccnc34)CC2)C1 [Compound 370, N-tert-butyl-3-(4-furo[3,2-b]pyridin-3-ylpiperidin-1-yl)sulfonylaze-tidine-1-carboxamide] | 0.01 to 0.1 µM |
| C[C@@H]1CN(C(=O)N2CC(S(=O)(=O)N3CCC(c4coc5cccnc45)CC3)C2)C[C@H](C)O1 [Compound 374, [(2R,6S)-2,6-dimethylmorpholin-4-yl]-[3-(4-furo[3,2-b]pyridin-3-ylpiperidin-1-yl)sulfonylazetidin-1-yl]methanone] | < 0.01 µM |
| CC(C)(C)C(=O)CN1CC(S(=O)(=O)N2CCC(c3coc4cccnc34)CC2)C1 [Compound 376, 1-[3-(4-furo[3,2-b]pyridin-3-ylpiperidin-1-yl)sulfonylazetidin-1-yl]-3,3-dimethylbutan-2-one] | 0.01 to 0.1 µM |
| O=C(CC(O)(C(F)(F)F)C(F)(F)F)N1CC(S(=O)(=O)N2CCC(c3c[nH]c4cccnc34)CC2)C1 [Compound 379, 4,4,4-trifluoro-3-hydroxy-1-[3-[4-(1H-pyrrolo[3,2-b]pyridin-3-yl)piperidin-1-yl]sulfonylaze-tidin-1-yl]-3-(trifluoromethyl) butan-1-one] | 0.01 to 0.1 µM |
| Cc1ccc2c(C3CCN(S(=O)(=O)C4CN(C(=O)N5C[C@@H](C)O[C@@H](C)C5)C4)CC3)c[nH]c2n1 [Compound 381, [cis-2,6-dimethylmorpholin-4-yl]-[3-[4-(6-methyl-1H-pyrrolo[2,3-b]pyridin-3-yl)piperidin-1-yl]sulfonylazetidin-1-yl]methanone] | < 0.01 µM |
| O=C(Nc1cccc(F)c1)N1CC(S(=O)(=O)N2CCC(c3coc4cccnc34)CC2)C1 [Compound 383, N-(3-fluorophenyl)-3-(4-furo[3,2-b]pyridin-3-ylpiperidin-1-yl)sulfonylaze-tidine-1-carboxamide] | 0.01 to 0.1 µM |
| O=C(Nc1cc(F)ccc1Cl)N1CC(S(=O)(=O)N2CCC(c3c[nH]c4ncccc34)CC2)C1 [Compound 385, N-(2-chloro-5-fluorophenyl)-3-[4-(1H-pyrrolo[2,3-b]pyridin-3-yl)piperidin-1-yl]sulfonylaze-tidine-1-carboxamide] | 0.01 to 0.1 µM |
| O=C(Nc1cccc(F)c1)N1CC(S(=O)(=O)N2CCC(c3c[nH]c4ncccc34)CC2)C1 [Compound 389, N-(3-fluorophenyl)-3-[4-(1H-pyrrolo[2,3-b]pyridin-3-yl)piperidin-1-yl]sulfonylaze-tidine-1-carboxamide] | 0.01 to 0.1 µM |
| O=C(Nc1c(F)cccc1F)N1CC(S(=O)(=O)N2CCC(c3c[nH]c4ncccc34)CC2)C1 [Compound 390, N-(2,6-difluorophenyl)-3-[4-(1H-pyrrolo[2,3-b]pyridin-3-yl)piperidin-1-yl]sulfonylaze-tidine-1-carboxamide] | 0.01 to 0.1 µM |
| Cc1cccc(C)c1NC(=O)N1CC(S(=O)(=O)N2CCC(c3c[nH]c4ncccc34)CC2)C1 [Compound 391, N-(2,6-dimethylphenyl)-3-[4-(1H-pyrrolo[2,3-b]pyridin-3-yl)piperidin-1-yl]sulfonylaze-tidine-1-carboxamide] | 0.01 to 0.1 µM |
| Cc1cc(F)ccc1NC(=O)N1CC(S(=O)(=O)N2CCC(c3coc4cccnc34)CC2)C1 [Compound 392, N-(4-fluoro-2-methylphenyl)-3-(4-furo[3,2-b]pyridin-3-ylpiperidin-1-yl)sulfonylaze-tidine-1-carboxamide] | 0.01 to 0.1 µM |

More lines, now with the values ahead:

| IC50 | SMILES |
| --- | --- |
| 0.01 to 0.1 µM | CC(C)(C)OC(=O)N[C@H]1C[C@@H](S(=O)(=O)N2CCC(c3c[nH]c4ncccc34)CC2)C1 [Compound 358, cis-tert-butyl-N-[3-[[4-(1H-pyrrolo[2,3-b]pyridin-3-yl)-1-piperidyl]sulfonyl]cyclobutyl]carbamate] |
| 0.01 to 0.1 µM | Cc1c(F)cccc1NC(=O)N1CC(S(=O)(=O)N2CCC(c3coc4cccnc34)CC2)C1 [Compound 360, N-(3-fluoro-2-methylphenyl)-3-(4-furo[3,2-b]pyridin-3-ylpiperidin-1-yl)sulfonylaze-tidine-1-carboxamide] |
| 0.01 to 0.1 µM | Cc1ccc(F)cc1NC(=O)N1CC(S(=O)(=O)N2CCC(c3coc4cccnc34)CC2)C1 [Compound 365, N-(5-fluoro-2-methylphenyl)-3-(4-furo[3,2-b]pyridin-3-ylpiperidin-1-yl)sulfonylaze-tidine-1-carboxamide] |
| 1 to 10 µM | Cc1ccc(F)cc1NC(=O)N1CC(S(=O)(=O)N2CCC(c3ccc(F)cc3)CC2)C1 [Compound 367, N-(5-fluoro-2-methylphenyl)-3-[4-(4-fluorophenyl)piperidin-1-yl]sulfonylaze-tidine-1-carboxamide] |
| 1 to 10 µM | Cc1ccc2c(C3CCN(S(=O)(=O)C4CN(C(=O)Nc5cc(F)ccc5C)C4)CC3)c[nH]c2n1 [Compound 368, N-(5-fluoro-2-methylphenyl)-3-[4-(6-methyl-1H-pyrrolo[2,3-b]pyridin-3-yl)piperidin-1-yl]sulfonylaze-tidine-1-carboxamide] |
| 0.01 to 0.1 µM | CC(C)[C@@H](CO)NC(=O)N1CC(S(=O)(=O)N2CCC(c3coc4cccnc34)CC2)C1 [Compound 373, 3-(4-furo[3,2-b]pyridin-3-ylpiperidin-1-yl)sulfonyl-N-[(2S)-1-hydroxy-3-methylbutan-2-yl]azetidine-1-carboxamide] |
| 0.1 to 1 µM | CC(C)(C)C(=O)CN1CC(S(=O)(=O)N2CCC(c3ccc(F)cc3)CC2)C1 [Compound 375, 1-[3-[4-(4-fluorophenyl)piperidin-1-yl]sulfonylaze-tidin-1-yl]-3,3-dimethylbutan-2-one] |
| 0.01 to 0.1 µM | O=C(CC1CCOCC1)N1CC(S(=O)(=O)N2CCC(c3coc4cccnc34)CC2)C1 [Compound 377, 1-[3-[(4-furo[3,2-b]pyridin-3-yl-1-piperidyl)sulfonyl]azetidin-1-yl]-2-tetrahydropyran-4-yl-ethanone] |
| 0.1 to 1 µM | CC(C)(C)C(=O)CN1CC(S(=O)(=O)N2CCC(c3ccc(C#N)cc3)CC2)C1 [Compound 378, 4-[1-[1-(3,3-dimethyl-2-oxobutyl)azetidin-3-yl]sulfonylpiperidin-4-yl]benzonitrile] |
| < 0.01 µM | Cc1ccc2c(C3CCN(S(=O)(=O)C4CN(C(=O)OC5CCOCC5)C4)CC3)c[nH]c2n1 [Compound 380, oxan-4-yl 3-[4-(6-methyl-1H-pyrrolo[2,3-b]pyridin-3-yl)piperidin-1-yl]sulfonylaze-tidine-1-carboxylate] |
| 0.01 to 0.1 µM | Cc1cccc(C)c1NC(=O)N1CC(S(=O)(=O)N2CCC(c3coc4cccnc34)CC2)C1 [Compound 382, N-(2,6-dimethylphenyl)-3-(4-furo[3,2-b]pyridin-3-ylpiperidin-1-yl)sulfonylaze-tidine-1-carboxamide] |
| 0.01 to 0.1 µM | O=C(Nc1cc(F)ccc1Cl)N1CC(S(=O)(=O)N2CCC(c3coc4cccnc34)CC2)C1 [Compound 384, N-(2-chloro-5-fluorophenyl)-3-(4-furo[3,2-b]pyridin-3-ylpiperidin-1-yl)sulfonylaze-tidine-1-carboxamide] |
| 0.01 to 0.1 µM | Cc1noc(C)c1CC(=O)N1CC(S(=O)(=O)N2CCC(c3ccc(Cl)cc3)CC2)C1 [Compound 386, 1-[3-[4-(4-chlorophenyl)piperidin-1-yl]sulfonylaze-tidin-1-yl]-2-(3,5-dimethyl-1,2-oxazol-4-yl)ethanone] |
| 0.01 to 0.1 µM | Cc1cccc(F)c1NC(=O)N1CC(S(=O)(=O)N2CCC(c3c[nH]c4ncccc34)CC2)C1 [Compound 387, N-(2-fluoro-6-methylphenyl)-3-[4-(1H-pyrrolo[2,3-b]pyridin-3-yl)piperidin-1-yl]sulfonylaze-tidine-1-carboxamide] |
